According to US20220313587A1, “Oral Care Compositions” (Colgate-Palmolive Company, priority 2019, published 2022):

Tests used:
CAP-18 (LL-37) = test: Relative gene expression by qPCR (LL-37 probe) in oral tissue model after treatment with toothpaste slurry; assay type: cell-based, human; conditions: fresh toothpaste slurry 1:3 in water, 2 minutes treatment, overnight incubation, normalized with GAPDH
Protocol: (§1) A toothpaste slurry was prepared by diluting the toothpaste formulation of Table 1 with deionized water in a 1:3 ratio. The slurry was applied on top of tissues that modeled the human oral cavity. After 2 minutes of the treatment, the tissues were rinsed with PBS twice or three times. Medium in wells was replaced with fresh medium and incubated in a cell culture incubator for overnight. Tissues were harvested and processed for RNA isolation and c-DNA preparation. Two probes were used for qPCR; CAP-18 (LL-37) and Cyp24A1. Relative levels of expressions were assessed after normalization with GAPDH (internal control).
(§2) The data is consistent for both LL-37 and Cyp24A1.

Cyp24A1 = test: Relative gene expression by qPCR (Cyp24A1 probe) in oral tissue model after treatment with toothpaste slurry; assay type: cell-based, human; conditions: fresh toothpaste slurry 1:3 in water, 2 minutes treatment, overnight incubation, normalized with GAPDH
Protocol: as §1, §2

[1] = test system: gingival epithelial cells (GEC); test: Topical application of vitamin D to gingival epithelial cells, LL-37 expression; assay type: cell-based

Row | SMILES | Relative Gene Expression after Treatment, LL-37, Mean (CAP-18 (LL-37)) | Relative Gene Expression after Treatment, Cyp24A1, Mean (Cyp24A1) | expression of anti-microbial peptide (LL-37) proteins [1]
1 | C=C1CC[C@H](O)C/C1=C/C=C1\CCC[C@]2(C)[C@@H]([C@H](C)CCCC(C)C)CC[C@@H]12 [Neat Active, cholecalciferol] | 2.0 | 4.3 | –
2 | C=C1/C(=C\C=C2/CCC[C@]3(C)[C@@H]([C@H](C)CCCC(C)(C)O)CC[C@@H]23)C[C@@H](O)C[C@@H]1O [1,25(OH)2D3, 1,25-dihydroxycholecalciferol] | – | – | induces enhanced expression
